Test results from patent publication US11253507B2 (Singapore Health Services PTE LTD, priority 2017, dated 2022).
Several values for one entry are separate records, joined by “and”; a condition that tells them apart may be missing. Identical values can stand only once.

Experiments:
[1] = tested on: B6J (Mus musculus) mice; experiment: Murine myopia model (−10 D lens), atropine sulfate eye drops prior to inducing myopia, ocular biometry; assay type: in vivo
Experimental: Animals: Breeding pair B6J (Mus musculus) mice were obtained from Jackson Lab and produced offspring. Naive control animals were housed in groups of 6 while experimental animals were housed individually in standard mouse cages after 21 days of age at 25° C. on a schedule of 12:12 h of light on and off with mouse pellets and water available ad libidum. Approval was obtained from the SingHealth Institutional Animal Care and Use of Committee (IACUC) and all procedures performed in this study complied with the Association of Research in Vision and Ophthalmology (ARVO) Statement for the Use of Animals in Ophthalmology and Vision Research.
Murine Myopia Model: A −10 D contact lens (PMMA Contact Lens in Grey Tint, 8.5 mm diameter, 8 mm base curve, refractive Index: 1.43, axial thickness: 0.5 mm) was placed over the right eye on day 21 by gluing to an annulus of velcro, and then attaching to a matching piece of velcro that had been previously sutured to the skin around the eye. The spectacle lenses were cleaned daily in dim light and left eyes were uncovered and served as controls. […]
Ocular biometry assessment: Refractions and biometry measurements were recorded every week until the end of the study. Axial length was measured with in vivo Optic Low Coherence Interferometry (OLCI-AcMaster). Refraction was measured by automated eccentric photorefractor. […]

[2] = tested on: patients; experiment: Adverse effects of treatment with very low concentration atropine composition (pupil dilation, loss of accommodation); assay type: in vivo, human; settings: composition with very low concentration of atropine (less than 0.025%, e.g. 0.01%); mean +/− SD
Description: The pupil dilation associated with the treatment is often no greater than 2 mm, e.g., no greater than 1.9 mm, no greater than 1.8 mm, no greater than 1.7 mm, no greater than 1.5 mm, or no greater than 1.49 mm. Typically, patients treated with the composition disclosed above may experience pupil dilation of 0.74+/−0.75 mm. The loss of accommodation associated with the treatment is also minimal, typically no greater than 10 D, e.g., no greater than 9 D, no greater than 8.5 D, no greater than 8.8 D, or no greater than 8 D. Typically, patents treated with the composition disclosed above may experience a loss of accommodation of 4.6+/−4.2 D.

[3] = Body weights in the lens-induced myopia study; assay type: in vivo, mice; settings: 0.01% atropine topical; post-natal days 22, 35 and 49
Experimental: Ocular biometry such as axial length (AL) and refraction measurements were measured as described in Example 2. The measurements were done just before and 2 weeks after lens-induction, at days 35 and 49, respectively. The data was analyzed using the GraphPad Prism software version 7.02. Changes in AL and refraction between any two groups were analyzed using independent unpaired t-tests. A difference at p value<0.05 was considered statistically significant. Data are reported as mean+/−SEM. The body weights were recorded at post-natal days 22, 35 and 49. […] Changes in AL and refraction at day 49 relative to measurements at day 35 are shown in FIG. 3A and FIG. 3B, respectively.

[4] = tested on: C57BL/6J mice; experiment: Spectacle lens-induced myopia (−15 D lens) model, ocular biometry (axial length, refraction) after 0.01% atropine pre-treatment; assay type: in vivo; settings: for Change in AL, Avg +/− SEM: Group 2 mean (n=7), 0.01% atropine pre-treatment for 2 weeks
Experimental: Animals: Three weeks old C57BL/6J mice were purchased from InVivos, Singapore and were held at the animal holding unit of SingHealth Experimental Medicine Centre. The experimental animals were housed individually in standard mouse cages at 25° C. on a schedule of 12:12 h of light on (325 lx) and off (0 lx), with mouse pellets and water available ad libidum. All the procedures performed in this study complied with the Association of Research in Vision and Ophthalmology (ARVO) Statement for the Use of Animals in Ophthalmic and Vision Research and were approved by SingHealth IACUC. Both the eyes of each animal were screened for the ophthalmic abnormalities, such as corneal opacities and anterior polar cataracts.
Mouse model of experimental myopia: Spectacle lens-induced myopia model was established by placing −15 D hard lens on the right eye of the animal, which served as the experimental eye, at post-natal day 35. Briefly, a −15 D lens (PMMA spectacle lens in blue tint, radius of outer curvature 8.5, inner curvature 8 mm, lens thickness 0.5 mm, Flexilens, India) was glued to an annulus (with 8 mm base curve) of Velcro. This mating piece was then attached to the Velcro that had been previously glued to the hair around the right experimental eye using a cyanoacrylate (Super Glue gel, UHU, Germany). This set up ensures that an air gap of 1.5 mm existed between the back part of the lens and the anterior surface of the cornea, so that the contact lens optically acted as a spectacle lens. The right eye of naïve group was attached with plano lens and acted as a negative control in the experimental study. Both the eyes in each animal were examined daily for any infection and the lenses were also cleaned regularly in dim red light. Left eyes were kept uncovered and were not used for any ocular biometry measurement in this study. Elizabethan collars made from thin plastic were fitted around the neck of each mouse upon lens-induction. This was done so as to prevent the mice from removing their lenses. Food pellets were placed on the floor of the cage to make eating easier. This strategy has also been followed previously by other groups doing mouse model of lens-induced myopia (Schaeffel et al., 2004).
Treatment protocols: A total of 27 mice were divided into 4 different groups as mentioned in Table 1, below. […] 7 μL of drug was administered topically to the right eye in dim red light at the same time each day. This was followed by lens (either −15 D or plano) induction on post-natal day 35, that was kept attached until day 49.
Ocular biometry such as axial length (AL) and refraction measurements were measured as described in Example 2. The measurements were done just before and 2 weeks after lens-induction, at days 35 and 49, respectively. The data was analyzed using the GraphPad Prism software version 7.02. Changes in AL and refraction between any two groups were analyzed using independent unpaired t-tests. A difference at p value<0.05 was considered statistically significant. Data are reported as mean+/−SEM. The body weights were recorded at post-natal days 22, 35 and 49.

[5] = tested on: myopic children; settings: 0.01% atropine daily, cited from earlier work
[6] = Group 2, 0.01% atropine pre-treatment day 22-35, 2 weeks after −15 D lens induction, individual mice
[7] = Group 2, 0.01% atropine pre-treatment, day 49 relative to day 35, −15 D lens, individual mice

## CN1[C@@H]2CC[C@H]1C[C@@H](OC(=O)C(CO)c1ccccc1)C2 (stereo partly shown) [Atropine, atropine]
[1]; Atropine sulfate 1% for 2 weeks prior to −10 D lens for 4 weeks, FIG. 1B, p<0.01 vs −10 D lens alone
  Refractive error (refraction state): remained hyperopic
[1]; Group 2: 1% daily 10 μl topical from day 21 for 2 weeks, then −10 D lens for 4 weeks, FIG. 1A, p<0.01, n=18
  Effect on axial elongation (axial length): blocked most of the elongation of axial length
[2]
  Loss of accommodation: 4.6+/−4.2 D
  Pupil dilation: 0.74+/−0.75 mm
[3]
  Impact on body weights: Neither the drug (atropine and vehicle) nor the lens treatment adversely impacted the body weights
[4]; 0.01% atropine topical for 2 weeks before lens-induction, two-tailed p-value=0.1557
  Reduction of the increase in AL as compared to vehicle pre-treated myopic eyes: ~15%
[4]; Group 2, 0.01% atropine 7 μL topical daily, day 22-35, right eye, just before −15 D lens induction, individual mice
  Refraction at D35: 7.44 Diopter and 3.71 Diopter and 7.66 Diopter and 5.96 Diopter and 5.29 Diopter and 5.43 Diopter and 8.34 Diopter
[4]; Group 2, 0.01% atropine 7 μL topical daily, post-natal day 22-35, right eye, just before −15 D lens induction, individual mice
  AL at D35: 3.189 mm and 3.159 mm and 3.195 mm and 3.214 mm and 3.297 mm and 3.250 mm and 3.269 mm
[4]; [6]
  AL at D49: 3.268 mm and 3.238 mm and 3.277 mm and 3.340 mm and 3.374 mm and 3.335 mm and 3.386 mm
  Refraction at D49: 5.22 Diopter and −1.85 Diopter and 6.30 Diopter and 6.26 Diopter and 6.27 Diopter and 4.17 Diopter and 8.14 Diopter
[4]; [7]
  Change in AL: 0.079 mm (2×) and 0.082 mm and 0.126 mm and 0.077 mm and 0.084 mm and 0.117 mm
  Change in refraction: −2.22 Diopter and −5.57 Diopter and −1.37 Diopter and 0.30 Diopter and 0.99 Diopter and −1.26 Diopter and −0.20 Diopter
[4]; day 49 relative to day 35, −15 D lens
  Change in AL, Avg +/− SEM: 0.092 mm
[4]; day 49 relative to day 35, −15 D lens, listed as atropine
  Change in AL, Avg +/− SEM: 0.092 mm
[5]; ATOM1 and ATOM2
  Reduction of mean 2-year decline in SE vs placebo: about 58%
[5]; placebo about −1.2 D (Chia et al.)
  Mean 2-year decline in SE: ~−0.5 D
